# In ChEMBL document CHEMBL1146385, “Discovery of novel phenoxyacetic acid derivatives as antimycobacterial agents” (2007):
# System: Mycobacterium tuberculosis
# Assay: Antimycobacterial activity against isoniazid-resistant Mycobacterium tuberculosis by broth dilution assay
# Type: functional
row,Compound,MIC [µg/mL]
1,COc1cc(C2=NN(C(N)=S)C(Cc3ccccc3)C2)ccc1OCC(=O)O (configuration not stated),6.25
2,COc1cc(C2=NN(C(N)=S)C(c3ccccc3O)C2)ccc1OCC(=O)O (configuration not stated),0.58
3,COc1cc(C2=NN(C(N)=O)C(c3ccccc3)C2)ccc1OCC(=O)O (configuration not stated),6.12
4,COc1cc(C2=NN(C(N)=O)C(c3ccc(C)cc3)C2)ccc1OCC(=O)O (configuration not stated),6.25
5,COc1cc(C2=NN(C(N)=S)C(c3ccc(O)cc3)C2)ccc1OCC(=O)O (configuration not stated),0.2
6,COc1cc(C2=NN(C(N)=O)C(c3ccccc3Cl)C2)ccc1OCC(=O)O (configuration not stated),1.26
7,COc1cc(C2=NN(C(N)=O)C(c3ccc(N)cc3)C2)ccc1OCC(=O)O (configuration not stated),5.42
8,COc1cc(C2=NN(C(N)=S)C(c3ccc(C)cc3)C2)ccc1OCC(=O)O (configuration not stated),6.15
9,COc1cc(C2=NN(C(N)=S)C(c3ccc(Cl)cc3)C2)ccc1OCC(=O)O (configuration not stated),0.06
10,COc1cc(C2=NN(C(N)=S)C(c3ccccc3Cl)C2)ccc1OCC(=O)O (configuration not stated),0.12
11,COc1cc(C2=NN(C(N)=O)C(c3ccc(F)cc3)C2)ccc1OCC(=O)O (configuration not stated),3.25
12,COc1cc(C2=NN(C(N)=O)C(c3ccc(Cl)cc3)C2)ccc1OCC(=O)O (configuration not stated),0.13
13,COc1cc(C2=NN(C(N)=O)C(Cc3ccccc3)C2)ccc1OCC(=O)O (configuration not stated),6.25
14,COc1cc(C2=NN(C(N)=S)C(c3ccc(N)cc3)C2)ccc1OCC(=O)O (configuration not stated),12.5
15,COc1cc(C2=NN(C(N)=S)C(c3cccc([N+](=O)[O-])c3)C2)ccc1OCC(=O)O (configuration not stated),3.12
16,COc1cc(C2=NN(C(N)=S)C(c3ccccc3)C2)ccc1OCC(=O)O (configuration not stated),6.25
17,COc1cc(C2=NN(C(N)=O)C(c3ccccc3O)C2)ccc1OCC(=O)O (configuration not stated),0.58
18,COc1cc(C2=NN(C(N)=O)C(c3cccc([N+](=O)[O-])c3)C2)ccc1OCC(=O)O (configuration not stated),6.25
19,COc1cc(C2=NN(C(N)=S)C(c3ccc(F)cc3)C2)ccc1OCC(=O)O (configuration not stated),0.96
20,COc1cc(C2=NN(C(N)=O)C(c3ccc(O)cc3)C2)ccc1OCC(=O)O (configuration not stated),1.23
21,COc1cc(C2=NN(C(N)=O)C(c3ccc([N+](=O)[O-])cc3)C2)ccc1OCC(=O)O (configuration not stated),6.25
22,COc1cc(C2=NN(C(N)=S)C(c3ccc([N+](=O)[O-])cc3)C2)ccc1OCC(=O)O (configuration not stated),6.25
